From patent US9951056B2, “Substituted nicotinamide inhibitors of BTK and their preparation and use in the treatment of cancer, inflammation and autoimmune disease” (BEIJING INNOCARE PHARMA TECH CO., LTD., priority 2013, dated 2018) come the findings set out here.

Chain of BTK (Q06187 whole entry): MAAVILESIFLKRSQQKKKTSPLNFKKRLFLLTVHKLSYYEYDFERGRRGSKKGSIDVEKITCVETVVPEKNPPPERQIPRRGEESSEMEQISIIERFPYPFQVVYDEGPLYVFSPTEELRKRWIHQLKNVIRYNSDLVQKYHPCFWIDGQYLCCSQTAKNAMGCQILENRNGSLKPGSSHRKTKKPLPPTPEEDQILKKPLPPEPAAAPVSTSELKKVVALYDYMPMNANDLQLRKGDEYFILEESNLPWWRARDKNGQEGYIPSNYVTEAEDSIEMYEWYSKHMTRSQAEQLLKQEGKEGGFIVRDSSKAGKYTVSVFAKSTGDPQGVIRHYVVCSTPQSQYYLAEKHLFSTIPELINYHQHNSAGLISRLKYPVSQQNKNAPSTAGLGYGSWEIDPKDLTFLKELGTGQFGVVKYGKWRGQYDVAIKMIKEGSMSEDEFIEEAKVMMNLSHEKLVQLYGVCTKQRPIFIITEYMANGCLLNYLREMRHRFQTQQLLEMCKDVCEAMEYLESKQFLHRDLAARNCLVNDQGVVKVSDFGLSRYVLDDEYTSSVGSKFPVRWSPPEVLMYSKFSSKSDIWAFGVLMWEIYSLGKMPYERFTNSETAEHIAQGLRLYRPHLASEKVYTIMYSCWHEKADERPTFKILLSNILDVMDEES

The target of one experiment is SRC (Homo sapiens (Human), UniProt P12931). The experiment in a line: kinase competition binding screen (liganded affinity beads, qPCR) at 1000 nM. As to conditions: BTK versus SRC.
Chain of SRC (P12931 whole entry, looked up): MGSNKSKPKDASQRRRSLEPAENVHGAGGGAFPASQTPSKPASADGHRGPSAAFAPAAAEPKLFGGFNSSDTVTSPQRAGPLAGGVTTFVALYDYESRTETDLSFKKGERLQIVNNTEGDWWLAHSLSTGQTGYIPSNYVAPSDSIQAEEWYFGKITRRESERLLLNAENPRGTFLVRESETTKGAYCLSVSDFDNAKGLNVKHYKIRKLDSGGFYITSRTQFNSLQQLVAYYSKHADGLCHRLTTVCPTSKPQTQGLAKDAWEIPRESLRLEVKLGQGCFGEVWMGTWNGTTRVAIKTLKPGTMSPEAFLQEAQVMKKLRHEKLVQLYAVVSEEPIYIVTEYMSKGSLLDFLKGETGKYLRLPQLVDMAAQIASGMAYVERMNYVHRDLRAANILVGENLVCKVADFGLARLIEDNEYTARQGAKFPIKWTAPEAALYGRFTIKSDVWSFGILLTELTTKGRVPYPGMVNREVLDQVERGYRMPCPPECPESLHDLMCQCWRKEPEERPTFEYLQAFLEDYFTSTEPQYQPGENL
Regarding `C=CC(=O)N1CCN(c2ccc(C(N)=O)c(-c3ccc(Oc4ccccc4)cc3)n2)CC1` [Example 5, 6-(4-acryloylpiperazin-1-yl)-2-(4-phenoxyphenyl)nicotinamide], the “Fold Difference” value is recorded as over 100x.

The target in a further experiment is BTK (Homo sapiens (Human), UniProt Q06187). The experiment in a line: ADP-Glo kinase biochemical assay, IC50 determination of BTK inhibitors. As to conditions: ADP-Glo, ATP 50 uM; values given as bins. As for the experimental part:
Biological Properties: IC50 Determination of BTK Inhibitors in ADP-Glo Kinase Biochemical Assay
Those skilled in the art will appreciate that a variety of assay formats may be used to determine the activity of the compounds described herein.
ADP-Glo™ Kinase Assay (Cat. V9102, 10000 Tests), Components: • 1×50 ml ADP-Glo™ Reagent, • 1×100 ml Kinase Detection Buffer, • 1× Kinase Detection Substrate (Lyophilized), • 1×5 ml Ultra Pure ATP, 10 mM • 1×5 ml ADP, 10 mM
• Enzyme concentration: 8 ng/5 ul. • ATP concentration: 50 uM • Substrate (peptide) concentration: 0.2 mg/ml. • Reaction buffer composition: 40 mM Tris-HCl pH7.5, 10 mM MgCl2, 2 mM MnCl2, 0.1 mg/mL BSA, 0.05 mM DTT. • Test compound concentration: DMSO≤0.5%. Methods: Compound Dosage Gradient Solution Preparation: […]
1× and 2× assay buffer were made at first. BTK kinase was diluted with 1× assay buffer but substrate was diluted with 2× assay buffer. 1 ul of diluted compound was transferred into 384-well assay plate, and then 2.0 ul of enzyme solution was added, and spun at 2000 rpm for 1 min. This mixture was incubated at 24° C. for 30 mins. 2 ul of peptide substrate/ATP mixture was added into the assay plate to start the reaction. The mixture was mixed thoroughly and then the 384-well plate was spun and incubated at 24° C. for 60 mins. 5.0 ul of ADP-Glo Reagent was added to stop the kinase activity and deplete the ATP unconsumed, and the plate was mixed thoroughly and incubated at 24° C. for 40 min. Then, 10.0 ul of Kinase Detection reagent was added, and the plate was centrifuged and then kept at 24° C. for 30 min. The luminescence signal was read on Envision.
IC50 values of compounds were calculated from a 4-parameter fit using Equation (2): Y=Bottom+(TOP-Bottom)/(1+((C/X)^hillslope)) Equation (2)
In Equation 2, Y represents % inhibition, X is the log value of the test compound concentration. IC50 was the concentration of compound where half of maximal inhibition was achieved.
All data was analyzed with IDBS XLfit5 software (ID Business Solutions Ltd., UK).
Compound `C=CC(=O)N1CCN(c2ccc(C(N)=O)c(-c3ccc(Oc4ccccc4)cc3)n2)CC1` [Example 5, 6-(4-acryloylpiperazin-1-yl)-2-(4-phenoxyphenyl)nicotinamide] came in with an IC50 of under 500 nM.

Consider `C=CS(=O)(=O)N1CCC(c2ccc(C(N)=O)c(-c3ccc(Oc4ccccc4)cc3)n2)CC1` [Example 63, 2-(4-phenoxyphenyl)-6-(1-(vinylsulfonyl)piperidin-4-yl)nicotinamide], for which the IC50 was under 500 nM.

`C=CC(=O)N1CCCC(n2cc(C(N)=O)c(-c3ccc(Oc4ccccc4)cc3)n2)C1` (stereo not drawn) [Example 11, 1-(1-acryloylpiperidin-3-yl)-3-(4-phenoxyphenyl)-1H-pyrazole-4-carboxamide] displayed a half-inhibitory concentration (IC50) of under 500 nM.

`C=CC(=O)NC1CCN(c2ccc(C(N)=O)c(-c3ccc(Oc4ccccc4)cc3)n2)CC1` [Example 9, 6-(4-acrylamidopiperidin-1-yl)-2-(4-phenoxyphenyl)nicotinamide] registered an IC50 of 500 to 1000 nM.

For the compound `NC(=O)c1ccc(C2CCNCC2)nc1-c1ccc(Oc2ccccc2)cc1` [Example 2, 2-(4-phenoxyphenyl)-6-(piperidin-4-yl)nicotinamide], the IC50 was at least 1000 nM.

`C=CC(=O)N1CCC(c2nc(-c3ccc(Oc4ccccc4)cc3)c(C(N)=O)o2)CC1` [Example 46, 2-(1-acryloylpiperidin-4-yl)-4-(4-phenoxyphenyl)oxazole-5-carboxamide] yielded an IC50 of under 500 nM.

On to `C=CC(=O)N1CCN(c2ccc(C(N)=O)c(-c3ccc(OC4CCCCC4)cc3)n2)CC1` [Example 28, 6-(4-acryloylpiperazin-1-yl)-2-(4-(cyclohexyloxy)phenyl)nicotinamide], for which the IC50 was under 500 nM.

Take `C=CC(=O)N1CCC(c2ccc(C(N)=O)c(-c3ccc(C(=O)Nc4ccccc4)cc3)n2)CC1` [Example 61, 6-(1-acryloylpiperidin-4-yl)-2-(4-(phenylcarbamoyl)phenyl)nicotinamide]: the concentration for half-maximal inhibition (IC50) was under 500 nM.

`C=CC(=O)N1CCN(c2ccc(C(N)=O)c(-c3ccc(Oc4ccccn4)cc3)n2)CC1` [Example 32, 6-(4-acryloylpiperazin-1-yl)-2-(4-(pyridin-2-yloxy)phenyl)nicotinamide]: the IC50 is under 500 nM.

As for `C=CC(=O)N1CCC(c2cc(C(N)=O)nn2-c2ccc(Oc3ccccc3)cc2)CC1` [Example 56, 5-(1-acryloylpiperidin-4-yl)-1-(4-phenoxyphenyl)-1H-pyrazole-3-carboxamide], the IC50 is at least 1000 nM.

Still in this experiment, the particulars now being: BTK, head-to-head assays.
Turning to `C=CC(=O)N1CCN(c2ccc(C(N)=O)c(-c3ccc(Oc4ccccc4)cc3)n2)CC1` [Example 5, 6-(4-acryloylpiperazin-1-yl)-2-(4-phenoxyphenyl)nicotinamide], the “improvement in potency over Analogs 1 and 2” value is recorded as about 100 ×.
